The compounds below were run against Ribosomal RNA A-site (assay: Binding affinity to bacterial ribosomal A site RNA oligonucleotide).
Type: nucleic-acid assay

SMILES	Kd [µM]
NC[C@H]1O[C@H](O[C@H]2[C@H](O[C@@H]3O[C@H](CO)[C@@H](O)[C@H]3O)[C@@H](O)[C@H](N)C[C@@H]2N)[C@H](N)[C@@H](O)[C@@H]1O [RIBOSTAMYCIN]	16.4
CN[C@@H]1[C@@H](O)[C@@H](O[C@@H]2[C@@H](O)[C@H](O[C@H]3O[C@H]([C@@H](C)O)[C@@H](O)[C@H](O)[C@H]3N)[C@@H](N)C[C@H]2N)OC[C@]1(C)O [GENETICIN]	14.5
NC[C@@H]1O[C@H](O[C@H]2[C@@H](O)[C@H](O[C@@H]3[C@@H](O)[C@H](N)C[C@H](N)[C@H]3O[C@H]3O[C@H](CO)[C@@H](O)[C@H](O)[C@H]3N)O[C@@H]2CO)[C@H](N)[C@@H](O)[C@@H]1O [PAROMOMYCIN]	0.39
NC[C@H]1O[C@H](O[C@H]2[C@H](O)[C@@H](O)[C@H](N)C[C@@H]2N)[C@H](N)[C@@H](O)[C@@H]1O [NEAMINE]	7.39
CN[C@@H]1[C@H](O)[C@@H](O[C@@H]2[C@@H](O)[C@H](O[C@H]3O[C@H](CN)CC[C@H]3N)[C@@H](N)C[C@H]2N)OC[C@]1(C)O [GENTAMICIN C]	5.53

Source: ChEMBL document CHEMBL1149500, “Binding of aminoglycosidic antibiotics to the oligonucleotide A-site model and 30S ribosomal subunit: Poisson-Boltzmann model, thermal denaturation, and fluorescence studies” (J Med Chem, 2006)
